Read-outs that look alike come from different tables or passages of the source.
Experiments:
Assay in all cases: cells
TG-LAM-134-P0 = test system: TG-LAM-134-P0; design: species or system primary AML patient blasts; conditions: 48 h
TG-LAM-135-P0 = test system: TG-LAM-135-P0; design: species or system primary AML patient blasts; conditions: 48 h
TG-LAM-136-P0 = test system: TG-LAM-136-P0; design: species or system primary AML patient blasts; conditions: 48 h
TG-LAM-138-P0 = test system: TG-LAM-138-P0; design: species or system primary AML patient blasts; conditions: 48 h
TG-LAM-139-P0 = test system: TG-LAM-139-P0; design: species or system primary AML patient blasts; conditions: 48 h
TG-LAM-140-P0 = test system: TG-LAM-140-P0; design: species or system primary AML patient blasts; conditions: 48 h
TG-LAM-141-P0 = test system: TG-LAM-141-P0; design: species or system primary AML patient blasts; conditions: 48 h
TG-LAM-142-P0 = test system: TG-LAM-142-P0; design: species or system primary AML patient blasts; conditions: 48 h
TG-LAM-143-P0 = test system: TG-LAM-143-P0; design: species or system primary AML patient blasts; conditions: 48 h, read-out: IC50 (µM) / AzaC
TG-LAM-144-P0 = test system: TG-LAM-144-P0; design: species or system primary AML patient blasts; conditions: 48 h
TG-LAM-145-P0 = test system: TG-LAM-145-P0; design: species or system primary AML patient blasts; conditions: 48 h
TG-LAM-75-P3 = test system: TG-LAM-75-P3; design: species or system primary AML patient blasts; conditions: 48 h, read-out: IC50 (µM) / AzaC
TG-LAM-76-P3 = test system: TG-LAM-76-P3; design: species or system primary AML patient blasts; conditions: 48 h, read-out: IC50 (µM) / AzaC
TG-LAM-77-P0 = test system: TG-LAM-77-P0; design: species or system primary AML patient blasts; conditions: 48 h
A-549 = conditions: Homo sapiens, A549, 144 h, read-out: Eribulin
DU-145 = conditions: Homo sapiens, DU-145, 144 h, read-out: Eribulin
H-1299 = conditions: Homo sapiens, NCI-H1299, 144 h, read-out: Eribulin
HEP-2 = conditions: Homo sapiens, HEp-2, 144 h, read-out: Eribulin
HL-60 = conditions: Homo sapiens, HL-60, 144 h, read-out: Eribulin
HRT-18 = conditions: Homo sapiens, HRT-18, 144 h
HUT-78 = conditions: Homo sapiens, HuT78, 144 h, read-out: Eribulin
Karpas-299 = conditions: Homo sapiens, KARPAS-299, 144 h, read-out: Eribulin
MESSA [1] = conditions: Homo sapiens, MES-SA, 144 h
NALM-6 = conditions: Homo sapiens, NALM-6, 144 h, read-out: Eribulin
REC-1 = conditions: Homo sapiens, Rec1, 144 h
SW-872 = conditions: Homo sapiens, SW872, 144 h
U2OS = conditions: Homo sapiens, U2OS, 144 h, read-out: Eribulin
ACHN = conditions: Homo sapiens, ACHN, 144 h, read-out: Vincristine
LnCaP = conditions: Homo sapiens, LNCaP, 144 h, read-out: Vincristine
MCF-7 = conditions: Homo sapiens, MCF7, 144 h, read-out: Vincristine
PC-3 = conditions: Homo sapiens, PC-3, 144 h, read-out: Vincristine
MESSA [2] = test system: MESSA; design: species or system MES-SA/Mx2; conditions: Homo sapiens, MES-SA, read-out: MES-SA

## Nc1ncn([C@@H]2O[C@H](CO)[C@@H](O)[C@H]2O)c(=O)n1 [5-azacytidine]
TG-LAM-134-P0; read-out: IC50 (µM) / AzaC
  IC50: 39.1 µM
TG-LAM-135-P0; read-out: IC50 (µM) / AzaC
  IC50: > 50 µM
TG-LAM-136-P0; read-out: IC50 (µM) / AzaC
  IC50: > 50 µM
TG-LAM-138-P0; read-out: IC50 (µM) / AzaC
  IC50: > 50 µM
TG-LAM-139-P0; read-out: IC50 (µM) / AzaC
  IC50: 38.5 µM
TG-LAM-140-P0; read-out: IC50 (µM) / AzaC
  IC50: 16.7 µM
TG-LAM-141-P0; read-out: IC50 (µM) / AzaC
  IC50: 20.4 µM
TG-LAM-142-P0; read-out: IC50 (µM) / AzaC
  IC50: > 50 µM
TG-LAM-143-P0
  IC50: 29.2 µM
TG-LAM-144-P0; read-out: IC50 (µM) / AzaC
  IC50: 41.7 µM
TG-LAM-145-P0; read-out: IC50 (µM) / AzaC
  IC50: 49.5 µM
TG-LAM-75-P3
  IC50: 13 µM
TG-LAM-76-P3
  IC50: 9.7 µM
TG-LAM-77-P0; read-out: IC50 (µM) / AzaC
  IC50: 19.2 µM

## C=C1C[C@@H]2CC[C@@]34C[C@H]5O[C@H]6[C@@H](O3)[C@H]3O[C@H](CC[C@@H]3O[C@H]6[C@H]5O4)CC(=O)C[C@@H]3[C@@H](OC)[C@@H](C[C@H](O)CN)O[C@H]3C[C@H]3O[C@@H](CC[C@@H]1O2)C[C@@H](C)C3=C [Eribulin]
A-549
  IC50: 3 nM
DU-145
  IC50: 2 nM
H-1299
  IC50: 75 nM
HEP-2
  IC50: 39 nM
HL-60
  IC50: 2 nM
HRT-18; read-out: Eribulin
  IC50: 99 nM
HUT-78
  IC50: 1 nM
Karpas-299
  IC50: 1 nM
MESSA [1]; read-out: Eribulin
  IC50: 121 nM
NALM-6
  IC50: 2 nM
REC-1; read-out: Eribulin
  IC50: 125 nM
SW-872; read-out: Eribulin
  IC50: 83 nM
U2OS
  IC50: 32 nM

## CC[C@]1(O)C[C@H]2CN(CCc3c([nH]c4ccccc34)[C@@](C(=O)OC)(c3cc4c(cc3OC)N(C=O)[C@H]3[C@@](O)(C(=O)OC)[C@H](OC(C)=O)[C@]5(CC)C=CCN6CC[C@]43[C@@H]65)C2)C1 [Vincristine]
TG-LAM-134-P0; read-out: IC50 (µM) / Vinc
  IC50: 0.17 µM
TG-LAM-135-P0; read-out: IC50 (µM) / Vinc
  IC50: > 2 µM
TG-LAM-136-P0; read-out: IC50 (µM) / Vinc
  IC50: 1.35 µM
TG-LAM-138-P0; read-out: IC50 (µM) / Vinc
  IC50: > 2 µM
TG-LAM-139-P0; read-out: IC50 (µM) / Vinc
  IC50: > 2 µM
TG-LAM-140-P0; read-out: IC50 (µM) / Vinc
  IC50: 1.13 µM
TG-LAM-141-P0; read-out: IC50 (µM) / Vinc
  IC50: 1.38 µM
TG-LAM-142-P0; read-out: IC50 (µM) / Vinc
  IC50: > 2 µM
TG-LAM-144-P0; read-out: IC50 (µM) / Vinc
  IC50: 1.6 µM
TG-LAM-145-P0; read-out: IC50 (µM) / Vinc
  IC50: > 2 µM
TG-LAM-77-P0; read-out: IC50 (µM) / Vinc
  IC50: > 2 µM
ACHN
  IC50: 166 nM
HRT-18; read-out: Vincristine
  IC50: 13 nM
LnCaP
  IC50: 66 nM
MCF-7
  IC50: 37 nM
MESSA [1]; read-out: Vincristine
  IC50: 106 nM
PC-3
  IC50: 23 nM
REC-1; read-out: Vincristine
  IC50: 56 nM
SW-872; read-out: Vincristine
  IC50: 31 nM
MESSA [2]
  IC50: 7.9 ± 6 nM

## CC(=O)O[C@H]1C(=O)[C@@]2(C)[C@H]([C@H](OC(=O)c3ccccc3)[C@]3(O)C[C@H](OC(=O)[C@H](O)[C@@H](NC(=O)c4ccccc4)c4ccccc4)C(C)=C1C3(C)C)[C@]1(OC(C)=O)CO[C@@H]1C[C@@H]2O [paclitaxel]
MESSA [2]
  IC50: 8 ± 5 nM

Reference: article doi:10.64898/2025.12.10.692519v1 (biorxiv, 2025)
